≈ marks a conversion by molar mass, not a printed value.
How the values were obtained:
[1] = target: Cytochrome P450 3A4 (Homo sapiens, UniProt P08684); assay: Inhibition of CYP3A4 (unknown origin); format: ADME
[2] = Plasma protein binding in human; format: ADME, cell-free; conditions: read-out: PPB (converted)
[3] = target: T1, Cytochrome P450 2B6 (Homo sapiens, UniProt P20813); assay: Inhibition of CYP2B6 (unknown origin); format: ADME
T1 sequence (P20813 whole entry): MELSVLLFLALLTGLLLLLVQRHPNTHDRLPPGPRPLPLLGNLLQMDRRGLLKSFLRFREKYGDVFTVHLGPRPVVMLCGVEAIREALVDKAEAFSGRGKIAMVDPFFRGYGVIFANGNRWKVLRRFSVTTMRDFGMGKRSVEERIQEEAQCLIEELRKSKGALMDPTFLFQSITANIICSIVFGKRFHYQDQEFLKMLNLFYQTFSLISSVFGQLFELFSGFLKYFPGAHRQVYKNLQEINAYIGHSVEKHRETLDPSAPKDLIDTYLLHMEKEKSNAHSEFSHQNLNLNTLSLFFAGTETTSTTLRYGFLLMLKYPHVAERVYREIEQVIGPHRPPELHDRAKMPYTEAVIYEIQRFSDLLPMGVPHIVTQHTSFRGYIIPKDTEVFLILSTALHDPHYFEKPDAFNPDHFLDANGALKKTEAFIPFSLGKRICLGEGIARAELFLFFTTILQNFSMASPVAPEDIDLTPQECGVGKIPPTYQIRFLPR

[4] = Metabolic stability in dog hepatocyte assessed as intrinsic clearance measured per 10^6 cells; format: ADME, cell-based, Canis lupus familiaris; conditions: hepatocytes, read-out: CLH
[5] = Plasma protein binding in dog; format: ADME, cell-free, Canis lupus familiaris; conditions: read-out: PPB (converted)
[6] = Genotoxicity in Salmonella typhimurium up to 5000 ug/ml by Ames test; format: toxicity; conditions: salmonella enterica subsp. enterica serovar typhimurium; dose < 5000 µg/ml
[7] = Metabolic stability in human liver microsomes assessed as intrinsic clearance at 2.5 uM; format: ADME, Microsome; conditions: read-out: CLH
[8] = Ratio of drug level in brain to plasma in Wistar rat at 3 mg/kg, po measured at 1.5 hr post dose; format: ADME, organism-based; conditions: brain and plasma, read-out: BPR
[9] = Plasma protein binding in rat; format: ADME, cell-free; conditions: read-out: PPB (converted)
[10] = Free plasma concentration in subchronic PCP-induced cognitive impairment associated schizophrenia Wistar rat model at 10 mg/kg, po measured at 1.5 hr post dose by HPLC-MS/MS analysis; format: ADME, organism-based; conditions: in vivo
[11] = Thermodynamic solubility of the compound at pH 5; format: physicochemical; conditions: buffer, read-out: Therm_solubility
[12] = target: Cytochrome P450 2D6 (Homo sapiens, UniProt P10635); assay: Inhibition of CYP2D6 (unknown origin); format: ADME
Sequence of Cytochrome P450 2D6 (P10635 whole entry): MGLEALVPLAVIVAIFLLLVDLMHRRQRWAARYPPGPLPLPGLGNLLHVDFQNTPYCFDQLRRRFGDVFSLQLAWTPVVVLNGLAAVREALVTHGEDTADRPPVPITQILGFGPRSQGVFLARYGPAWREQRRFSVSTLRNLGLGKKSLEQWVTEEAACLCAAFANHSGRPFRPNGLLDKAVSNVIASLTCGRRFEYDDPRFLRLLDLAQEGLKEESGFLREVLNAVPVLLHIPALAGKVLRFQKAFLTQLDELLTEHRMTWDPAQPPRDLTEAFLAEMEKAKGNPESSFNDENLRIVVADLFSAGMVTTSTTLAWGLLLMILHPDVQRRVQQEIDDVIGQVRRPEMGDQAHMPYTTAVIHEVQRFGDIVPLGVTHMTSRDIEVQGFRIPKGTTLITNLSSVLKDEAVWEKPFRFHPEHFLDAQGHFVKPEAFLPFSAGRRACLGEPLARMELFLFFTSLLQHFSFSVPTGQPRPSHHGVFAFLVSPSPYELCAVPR

[13] = Metabolic stability in Wistar rat hepatocyte assessed as intrinsic clearance measured per 10^6 cells; format: ADME, cell-based; conditions: hepatocytes, read-out: CLH
[14] = Cardiovascular toxicity in po dosed guinea pig assessed as NOAEL; format: organism-based, Cavia porcellus; conditions: in vivo
[15] = Clearance in Wistar rat plasma at 1 mg/kg, iv by HPLC-MS/MS analysis; format: ADME, organism-based
[16] = Apparent permeability in human Caco-2 cells at 1 uM by HPLC-UV analysis; format: ADME, cell-based
[17] = target: T2, Cytochrome P450 2C8 (Homo sapiens, UniProt P10632); assay: Inhibition of CYP2C8 (unknown origin); format: ADME
T2 sequence (P10632 whole entry): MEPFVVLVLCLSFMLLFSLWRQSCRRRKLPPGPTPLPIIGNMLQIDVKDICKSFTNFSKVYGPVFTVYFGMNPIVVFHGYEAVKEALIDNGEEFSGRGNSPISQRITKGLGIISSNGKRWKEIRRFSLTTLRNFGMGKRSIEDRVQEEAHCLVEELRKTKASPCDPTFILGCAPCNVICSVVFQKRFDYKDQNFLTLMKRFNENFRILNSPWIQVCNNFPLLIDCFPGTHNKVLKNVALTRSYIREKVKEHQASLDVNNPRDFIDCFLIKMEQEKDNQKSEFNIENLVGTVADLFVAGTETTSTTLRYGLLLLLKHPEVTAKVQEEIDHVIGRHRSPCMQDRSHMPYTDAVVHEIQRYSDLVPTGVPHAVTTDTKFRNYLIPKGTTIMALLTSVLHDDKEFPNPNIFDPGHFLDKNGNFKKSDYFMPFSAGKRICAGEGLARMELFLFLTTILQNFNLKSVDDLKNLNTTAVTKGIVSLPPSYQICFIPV

[18] = […] in po dosed Wistar rat assessed as convulsive activity by assessing NOAEL by electroconvulsive test; format: organism-based; conditions: in vivo
[19] = Bioavailability in male dog at 10 mg/kg, po or 3 mg/kg, iv by HPLC-MS/MS analysis; format: ADME, organism-based, Canis lupus familiaris; conditions: in vivo
[20] = […] in po dosed PTZ-induced seizure mouse model assessed as NOAEL by seizure test; format: organism-based; conditions: in vivo
[21] = target: GABA-A receptor; alpha-1/beta-3/gamma-2 (Homo sapiens) (UniProt P14867+P18507+P28472); assay: Negative allosteric modulation activity at human recombinant alpha1beta3gamma2 GABAA receptor stably expressed in HEK293 cells assessed as modulation at alpha1 subunit at 10 uM by Patch clamp method; format: cell-based; conditions: filed as negative allosteric modulator
[22] = target: Voltage-gated inwardly rectifying potassium channel KCNH2 (Homo sapiens, UniProt Q12809); assay: Inhibition of hERG expressed in CHO cells stably at -80 mV holding potential by automated patch clamp method; format: toxicity, cell-based
Sequence of Voltage-gated inwardly rectifying potassium channel KCNH2 (Q12809 whole entry): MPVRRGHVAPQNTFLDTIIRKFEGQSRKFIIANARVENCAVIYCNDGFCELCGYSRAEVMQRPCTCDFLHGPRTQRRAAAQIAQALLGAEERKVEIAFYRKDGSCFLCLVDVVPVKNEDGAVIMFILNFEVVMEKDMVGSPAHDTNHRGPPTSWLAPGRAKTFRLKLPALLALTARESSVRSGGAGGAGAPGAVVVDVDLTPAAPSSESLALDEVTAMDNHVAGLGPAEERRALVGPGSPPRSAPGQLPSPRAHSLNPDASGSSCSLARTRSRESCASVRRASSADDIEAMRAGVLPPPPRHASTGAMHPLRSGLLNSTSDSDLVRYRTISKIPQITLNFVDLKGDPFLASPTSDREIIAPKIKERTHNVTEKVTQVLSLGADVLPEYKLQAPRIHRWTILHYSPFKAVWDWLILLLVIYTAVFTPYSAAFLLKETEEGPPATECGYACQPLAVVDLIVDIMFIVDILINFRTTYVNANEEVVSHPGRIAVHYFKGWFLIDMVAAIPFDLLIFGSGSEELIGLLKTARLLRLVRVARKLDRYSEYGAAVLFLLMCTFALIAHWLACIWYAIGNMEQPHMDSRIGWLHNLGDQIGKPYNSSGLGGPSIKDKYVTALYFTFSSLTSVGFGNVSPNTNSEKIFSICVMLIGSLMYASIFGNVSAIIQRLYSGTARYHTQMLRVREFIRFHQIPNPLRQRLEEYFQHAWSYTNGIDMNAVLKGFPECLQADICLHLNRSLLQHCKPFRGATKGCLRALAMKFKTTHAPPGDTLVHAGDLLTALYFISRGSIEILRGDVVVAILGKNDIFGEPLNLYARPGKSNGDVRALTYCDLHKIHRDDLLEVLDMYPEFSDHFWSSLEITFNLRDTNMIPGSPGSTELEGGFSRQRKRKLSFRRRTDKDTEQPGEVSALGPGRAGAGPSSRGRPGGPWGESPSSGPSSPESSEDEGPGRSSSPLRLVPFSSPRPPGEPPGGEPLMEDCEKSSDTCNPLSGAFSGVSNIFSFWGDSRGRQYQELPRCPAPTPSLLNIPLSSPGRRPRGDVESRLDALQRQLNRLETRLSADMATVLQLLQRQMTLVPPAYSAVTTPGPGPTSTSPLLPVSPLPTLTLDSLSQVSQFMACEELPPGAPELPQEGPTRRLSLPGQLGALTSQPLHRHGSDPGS

[23] = Cardiovascular toxicity in po dosed dog assessed as NOAEL; format: organism-based, Canis lupus familiaris; conditions: in vivo
[24] = Plasma protein binding in guinea pig; format: ADME, cell-free, Cavia porcellus; conditions: read-out: PPB (converted)
[25] = species on record: Homo sapiens; assay: Selectivity ratio of Ki for human alpha1GABAA receptor to Ki for alpha2 GABAA receptor
[26] = Apparent permeability in human Caco2 cells assessed as permeability damage ratio at 1 uM by HPLC-UV analysis; format: ADME, cell-based; conditions: caco-2, 1 µM
[27] = Metabolic stability in guinea pig hepatocyte assessed as intrinsic clearance measured per 10^6 cells; format: ADME, cell-based, Cavia porcellus; conditions: hepatocytes, read-out: CLH
[28] = Metabolic stability in human hepatocyte assessed as intrinsic clearance measured per 10^6 cells; format: ADME, cell-based; conditions: hepatocytes, read-out: CLH
[29] = Half life in Wistar rat total plasma at 1 mg/kg, iv by HPLC-MS/MS analysis; format: ADME, organism-based
[30] = AUC (0 to infinity) in Wistar rat total plasma at 1 mg/kg, iv by HPLC-MS/MS analysis; format: ADME, organism-based; parameters: time infinity, dose 1 mg/kg, route iv
[31] = tested on: Rattus norvegicus; assay: Pro-cognitive activity in po dosed neonatal PCP-impaired social recognition Wistar rat model assessed as time spent social recognition administered 30 min before acquisition by social recognition test; format: functional; conditions: 0.5 h, read-out: MED
[32] = tested on: Rattus norvegicus; assay: Pro-cognitive activity in po dosed subchronic PCP-induced cognitive impairment associated schizophrenia Wistar rat model assessed as reversal of PCP-induced cognitive deficit administered 30 mins prior to T1 phase by NOR test; format: functional; conditions: 0.5 h, read-out: MED
[33] = Thermodynamic solubility of the compound at pH 6.5; format: physicochemical; conditions: buffer, read-out: Therm_solubility
[34] = target: GABA-A receptor; alpha-5/beta-3/gamma-2 (Homo sapiens) (UniProt P18507+P28472+P31644); assay: Negative allosteric modulation activity at human recombinant alpha5beta3gamma2 GABAA receptor stably expressed in HEK293 cells assessed as modulation at alpha5 subunit at 10 uM by Patch clamp method; format: cell-based; conditions: filed as negative allosteric modulator
[35] = Passive permeability in human Caco-2 cells assessed as permeability damage ratio at 10 uM by HPLC-UV analysis; format: ADME, cell-based; conditions: caco-2, 10 µM

Sequence of Cytochrome P450 3A4 (P08684 whole entry): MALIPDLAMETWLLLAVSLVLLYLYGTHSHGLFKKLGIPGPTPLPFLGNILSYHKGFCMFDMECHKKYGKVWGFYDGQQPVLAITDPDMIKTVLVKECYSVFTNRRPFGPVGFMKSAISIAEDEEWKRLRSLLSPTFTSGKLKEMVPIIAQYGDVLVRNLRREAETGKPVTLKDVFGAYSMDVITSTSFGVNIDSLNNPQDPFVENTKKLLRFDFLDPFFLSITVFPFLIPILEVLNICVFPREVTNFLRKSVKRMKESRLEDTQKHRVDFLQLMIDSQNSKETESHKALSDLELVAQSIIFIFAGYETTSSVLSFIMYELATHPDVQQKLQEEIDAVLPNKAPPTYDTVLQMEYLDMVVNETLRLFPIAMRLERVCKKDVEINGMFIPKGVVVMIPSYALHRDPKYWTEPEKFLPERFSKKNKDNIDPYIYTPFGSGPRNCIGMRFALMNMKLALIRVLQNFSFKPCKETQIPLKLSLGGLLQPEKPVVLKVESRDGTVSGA

IC50 [1]: > 50 µM | fraction unbound [2]: 0.014 | IC50 [3]: 20.8 µM | hepatocyte CLint [4]: 2 µL/min/1e6 cells | fraction unbound [5]: 0.05 | microsomal CLint at 2.5 µM [7]: 6 µL/min/mg | Kp at 1.5 h [8]: 6.3 | fraction unbound [9]: 0.04 | Cp(f) [10]: 6.9 nM | solubility thermodynamic [11]: 142 µM (≈ 65.2 µg/mL) | IC50 [12]: > 50 µM | hepatocyte CLint [13]: 19 µL/min/1e6 cells | clearance [15]: 41.3 mL/min/kg | Papp at 1 µM [16]: 43 ×10⁻⁶ cm/s | IC50 [17]: > 50 µM | bioavailability [19]: 12.6% | Activity [21]: -2% | fraction unbound [24]: 0.023 | Selectivity ratio [25]: > 40 | hepatocyte CLint [27]: 4 µL/min/1e6 cells | hepatocyte CLint [28]: 3 µL/min/1e6 cells | half-life [29]: 31.8 min | AUC(0-inf) [30]: 407 ng·h/mL | solubility thermodynamic [33]: 9.8 µM (≈ 4.5 µg/mL) | Activity [34]: -39%
SMILES: Cc1onc(-c2ccc(F)cc2)c1COc1ccc2c(n1)CCN(C(=O)CS(C)(=O)=O)C2
Activity [6]: Non-Toxic | NOAEL [14]: ≥ 100 mg/kg | NOAEL [18]: ≥ 1000 mg/kg | NOAEL [20]: ≥ 30 mg/kg | IC50 [22]: 6.2 µM | NOAEL [23]: ≥ 70 mg/kg | Ratio [26]: 0.93 | minimal effective dose [31]: 10 mg/kg | minimal effective dose [32]: 3 mg/kg | Ratio [35]: 29

Reference: ChEMBL document CHEMBL5154916, “Multiparameter Optimization of Naphthyridine Derivatives as Selective α5-GABAA Receptor Negative Allosteric Modulators” (J Med Chem, 2022)
